Assay results published in US4174390A, “Antibiotic A-7413 and process for preparation thereof” (Eli Lilly and Company, priority 1978, dated 1979).
In brackets after ≈: the same amount, converted by molar mass.

Assays:
[1] = system: Staphylococcus aureus strains; assay: standard agar-dilution tests (ICS method), S. aureus strains; type: cell-based
Method: A special advantage of the A-7413 compounds is their ability to inhibit organisms which are resistant to other antibiotics. In Table V are summarized the results of standard agar-dilution tests (using the ICS method) wherein A-7413 factor A was tested against a variety of Staphylococcus aureus strains. Results are given as the minimal inhibitory concentration (MIC) at which inhibition of the S. aureus strain occurred. The results obtained with the known antibiotic vancomycin in the same test are included for comparison.

Streptococcus species = assay: agar-dilution tests, penicillin-G-resistant Group-D-Streptococcus strains; type: cell-based, Streptococcus sp.
Method: In Table VI are summarized the results of agar-dilution tests wherein A-7413 factor A was tested against a variety of Streptococcus species. These tests employed trypticase-soy agar plus blood, 10^-2 dilution of an overnight broth culture in 0.3% agar as an inoculum, giving approximately 5,000 bacteria per 7.5-mm of agar surface. Again, the results for vancomycin in the same test are reported for comparison. All strains tested are penicillin-G-resistant, Group-D-Streptococcus strains.

CN[C@H](CC(C)C)C(=O)N[C@H]1C(=O)N[C@@H](CC(N)=O)C(=O)N[C@H]2C(=O)N[C@H]3C(=O)N[C@H](C(=O)N[C@H](C(=O)O)c4cc(O)cc(O)c4-c4cc3ccc4O)[C@H](O)c3ccc(c(Cl)c3)Oc3cc2cc(c3O[C@@H]2O[C@H](CO)[C@@H](O)[C@H](O)[C@H]2O[C@H]2C[C@](C)(N)[C@H](O)[C@H](C)O2)Oc2ccc(cc2Cl)[C@H]1O [Vancomycin, vancomycin] was tested, and the MIC ([1]; S. aureus strain 3055, penicillin G susceptible) was 1 µg/mL (≈ 0.69 µM), the MIC ([1]; S. aureus strain 3074, penicillin G resistant, methicillin susceptible) was 1 µg/mL (≈ 0.69 µM) and the MIC ([1]; S. aureus strain 3123, penicillin G susceptible) was 1 µg/mL (≈ 0.69 µM). The MIC ([1]; S. aureus strain 3125, penicillin G and methicillin resistant) was 1 µg/mL (≈ 0.69 µM), the MIC ([1]; S. aureus strain 3130, penicillin G and methicillin resistant) was 1 µg/mL (≈ 0.69 µM) and the MIC ([1]; S. aureus strain 3131, penicillin G and methicillin resistant) was 1 µg/mL (≈ 0.69 µM). For the same compound, the MIC ([1]; S. aureus strain 3132, penicillin G and methicillin resistant) was 1 µg/mL (≈ 0.69 µM), the MIC ([1]; S. aureus strain 3133, penicillin G and methicillin resistant) was 1 µg/mL (≈ 0.69 µM) and the MIC ([1]; S. aureus strain 3134, penicillin G and methicillin resistant) was 1 µg/mL (≈ 0.69 µM). For the same compound, the MIC ([1]; S. aureus strain 3135, penicillin G and methicillin resistant) was 0.5 µg/mL (≈ 0.345 µM), the MIC ([1]; S. aureus strain 3136, penicillin G and methicillin resistant) was 0.5 µg/mL (≈ 0.345 µM) and the MIC ([1]; S. aureus strain 3137, penicillin G and methicillin resistant) was 1 µg/mL (≈ 0.69 µM). The MIC ([1]; S. aureus strain 3138, penicillin G and methicillin resistant) was 1 µg/mL (≈ 0.69 µM), the MIC ([1]; S. aureus strain 3139, penicillin G and methicillin resistant) was 1 µg/mL (≈ 0.69 µM) and the MIC ([1]; S. aureus strain 3140, penicillin G and methicillin resistant) was 0.5 µg/mL (≈ 0.345 µM). The MIC ([1]; S. aureus strain H43, penicillin G resistant, methicillin susceptible) was 1 µg/mL (≈ 0.69 µM), the MIC ([1]; S. aureus strain H114, penicillin G resistant, methicillin susceptible) was 1 µg/mL (≈ 0.69 µM) and the MIC ([1]; S. aureus strain H290, penicillin G susceptible) was 1 µg/mL (≈ 0.69 µM). For the same compound, the MIC ([1]; S. aureus strain H541, penicillin G resistant, methicillin susceptible) was 1 µg/mL (≈ 0.69 µM), the MIC (Streptococcus species; Streptococcus sp. strain 238, trypticase-soy agar plus blood) was 2 µg/mL and the MIC (Streptococcus species; Streptococcus sp. strain 282, trypticase-soy agar plus blood) was 2 µg/mL. The MIC (Streptococcus species; Streptococcus sp. strain 8043, trypticase-soy agar plus blood) was 4 µg/mL, the MIC (Streptococcus species; Streptococcus sp. strain 9901, trypticase-soy agar plus blood) was 4 µg/mL and the MIC (Streptococcus species; Streptococcus sp. strain 9913, trypticase-soy agar plus blood) was 2 µg/mL. The MIC (Streptococcus species; Streptococcus sp. strain 9933, trypticase-soy agar plus blood) was 8 µg/mL, the MIC (Streptococcus species; Streptococcus sp. strain 9960, trypticase-soy agar plus blood) was 4 µg/mL and the MIC (Streptococcus species; Streptococcus sp. strain 12253P, trypticase-soy agar plus blood) was 2 µg/mL. For the same compound, the MIC (Streptococcus species; Streptococcus sp. strain 55992, trypticase-soy agar plus blood) was 4 µg/mL, the MIC (Streptococcus species; Streptococcus sp. strain Mitis, trypticase-soy agar plus blood) was 4 µg/mL and the MIC (Streptococcus species; Streptococcus sp. strain Shrigley, trypticase-soy agar plus blood) was 4 µg/mL.
